The source of these data is patent US6563024B1, “Process for transformation of mature trees of Eucalyptus plants” (OJI Paper Co., Ltd., priority 1999, dated 2003).

Experiment [1] deals with precocious branches of Eucalyptus camaldulensis. Put plainly: Transgenic calli formation after infection induction treatment of precocious branches with NAA, then Agrobacterium tumefaciens EHA101/pIG121-Hm infection. As to conditions: 30 days. Format: cell-based. The protocol:
Culturing was performed for 7 to 14 days at a temperature of 26 to 28° C. under dark conditions. After cutting the precocious branches subjected to the infection induction treatment to segments of 2 to 10 mm length with a knife, the segments were immersed in the culture medium of Agrobacterium tumefaciens strain EHA101/pIG121-Hm prepared according to the method described above. After wiping off the culture medium adhered to the segments of the precocious branches with filter paper, the sections of the precocious branches were embedded in an infection medium containing 2 mg/l NAA, 0.2 mg/l 4-PU, 1 mM galactose, 10 μM acetosyringone, 3% sucrose and 0.02% gellan gum in B5 basal medium, followed by stationary-culturing for 2 days at a temperature of 26° C. and under dark conditions to infect the precocious branches with Agrobacterium tumefaciens. With the exception of inducing precocious branches from three Eucalyptus camaldulensis plants, and performing infection induction treatment with the concentration of NAA in the precocious branch infection induction medium at 0, 0.02, 0.2 or 2.0 mg/l, the precocious branches were infected with Agrobacterium tumefaciens strain EHA101/pIG121-Hm in the same manner as described in Example 1, and the number of transgenic calli that express intron GUS gene was investigated 30 days after the start of the infection induction treatment. For plant 1, the case of testing precocious branches of the untreated group on which infection treatment was not performed, transformation efficiency of 23.1% was obtained. […] In addition, in the untreated group of plant 2 as well in which infection was difficult, transgenic calli were observed following infection induction by NAA. One the basis of these findings, infection induction treatment of precocious branches was clearly shown to be effective in improving transformation efficiency.

Experiment [2] shares this test system. Kind of experiment: Transgenic calli formation with varied NAA concentration in infection medium and sterilization medium. Format: cell-based. The following applies: 4-PU 0.2 mg/l. The protocol: After cutting the precocious branches subjected to the infection induction treatment to segments of 2 to 10 mm length with a knife, the segments were immersed in the culture medium of Agrobacterium tumefaciens strain EHA101/pIG121-Hm prepared according to the method described above. After wiping off the culture medium adhered to the segments of the precocious branches with filter paper, the sections of the precocious branches were embedded in an infection medium containing 2 mg/l NAA, 0.2 mg/l 4-PU, 1 mM galactose, 10 μM acetosyringone, 3% sucrose and 0.02% gellan gum in B5 basal medium, followed by stationary-culturing for 2 days at a temperature of 26° C. and under dark conditions to infect the precocious branches with Agrobacterium tumefaciens. The explant segments treated as described above were transplanted to a sterilization medium containing 2 mg/l NAA, 0.2 mg/l 4-PU or 4CPPU, 3% sucrose, and 500 mg/l of carbenicillin as antibiotic for sterilizing Agrobacterium attached to the explant segments, and were vertical-rotary-cultured for 7 - days at a temperature of 26° C. and rotating speed of 2 rpm under dark conditions to sterilize the Agrobacterium tumefaciens. With the exception of inducing precocious branches from a different plant of Eucalyptus camaldulensis, and the NAA concentrations used in the infection medium and sterilization medium, the precocious branches were infected with agrobacterium tumefaciens strain EHA101/pIG121-Hm in the same manner as described in Example 1 to produce transgenic calli.

Several values for one entry are separate records, joined by “and”; a condition that tells them apart may be missing. Equal values may be shown once.

On to `O=C(O)Cc1cccc2ccccc12` [NAA, naphthaleneacetic acid], for which the “Transformation efficiency = No. of transgenic calli/No. of tested segments × 100” value in experiment [1] (plant No. 1, NAA 0.02 mg/l in infection induction medium) was 72.9% and 73%; in experiment [1] (plant No. 1, NAA 0.2 mg/l in infection induction medium) it was 64%; in experiment [1] (plant No. 1, NAA 2.0 mg/l in infection induction medium), 49%; in experiment [1] (plant No. 2, NAA 0.02 mg/l in infection induction medium) it was 8%; in experiment [1] (plant No. 2, NAA 0.2 mg/l in infection induction medium), 31%; in experiment [1] (plant No. 2, NAA 2.0 mg/l in infection induction medium), 19%. Besides, the “Transformation efficiency = No. of transgenic calli/No. of tested segments × 100” value is on record as 69% in experiment [1] (plant No. 3, NAA 0.02 mg/l in infection induction medium); 38% in experiment [1] (plant No. 3, NAA 0.2 mg/l in infection induction medium); 59% in experiment [1] (plant No. 3, NAA 2.0 mg/l in infection induction medium). Also, the Transformation efficiency in experiment [2] (infection medium NAA 0.02 mg/l, sterilization medium NAA 0.02 mg/l) was 14%; in experiment [2] (infection medium NAA 0.02 mg/l, sterilization medium NAA 2 mg/l) it was 4%; in experiment [2] (infection medium NAA 2 mg/l, sterilization medium NAA 0.02 mg/l) it was 11%; in experiment [2] (infection medium NAA 2 mg/l, sterilization medium NAA 2 mg/l), 42%.
